Measurements as given in patent US20100150944A1, “METHODS AND COMPOSITIONS FOR DIAGNOSIS AND TREATMENT OF DEPRESSION AND ANXIETY” (MODGENE, LLC, priority 2007, published 2010).

What was measured:
C57BL/6J mice [1] = test: forced-swim test, C57BL/6J mice; assay type: in vivo, mouse; details: for immobility in forced-swim test: last 4 minutes of 6-minute test
Description: Briefly, in the Porsolt forced swim test, swim sessions are conducted by placing animals in containers with a level of water selected to be deep enough so that the animal cannot touch the bottom with its hind limbs or tail, nor can it escape. Two swim sessions are conducted, an initial 15 minute pretest one day prior to administration of the antidepressant drug and a second 5 minute test after administration of the drug (e.g., infusion of the drug into the midbrain) is begun. Each animal's 5 minute test sessions are videotaped for scoring later. The amount of time the animal spends active (swimming, exploring or trying to escape) and the time the rat is immobile (not struggling and making only those movements necessary to keep its head above water) is measured. Drugs with anti-depressant like activity decrease the immobility time.
(§1) As described above, the murine responses in forced swim and tail suspension tests provides a model for determining depression. We tested C57BL/6J and DBA/2J mice in the forced-swim and tail-suspension tests. In the forced-swim test, mice were gently placed in a clear plastic cylinder, diameter of 16 cm, height 25 cm, filled with 10 cm of clear water at 25° C. Test duration was 6 minutes and immobility, defined as the absence of all movement except minor movement required for the mouse to keep its head above the surface, was measured during the last 4 minutes. In the tail-suspension test, mice were suspended from a metal rod mounted 50 cm above the surface by fastening the tail to the rod with adhesive tape. The duration of the test was 6 minutes and immobility, defined as the absence of all but respiratory movements, was measured during the last 4 minutes. During the last 4 minutes of a 6-minute forced swim, unmedicated inbred C57BL/6J mice spent 152 seconds of the possible 240 seconds immobile (FIG. 2). In contrast, inbred DBA/2J mice had baseline (unmedicated) immobilities of 47 seconds (see FIG. 2). […] We investigated the hypothesis that the differences between these two inbred mouse lines that result in differing baseline immobilities in the forced-swim test at least in part arise from differences in the amount of mRNA that accumulates from specific genes.
We purchased some of the compound (Toronto Research Chemicals Inc., 2 Brisbane Rd., North York, Ontario, Canada M3J 2J8) and dissolved it in phosphate-buffered saline (PBS) containing 2.5 percent methanol.
When plain PBS/methanol solution (without 3Ac-SL0101) was administered to C57BL/6J mice, their immobility was 127 seconds. When the solution containing the 3Ac-SL0101 compound was administered in a very low dose, their immobility was reduced to 78 seconds, indicative of an antidepressant-like effect. […] When the compound was administered to DBA/2J mice, it was effective at an approximately 10-fold lower dose than in C57BL/6J mice, highly consistent with the notion that it is functioning by reducing the activity of rpS6.

[2] = tested on: p90 ribosomal S6 kinase, or RSK; details: cultured tumor cells; cited from earlier work
mice = test: tail-suspension test; details: mouse, in vivo
Description: An additional procedure for monitoring the effects of antidepressants involves suspending the mice by the tail from a lever and recording movements of the animal. The total duration of the test (usually about 6 minutes) can be divided into periods of agitation and immobility. Antidepressants will generally decrease the duration of immobility (Stem et al., Psychopharmacology 85(3) 367-70). A computerized version of this test, referred to as […]-TST has been developed and is well known to those of skill in that art as a primary screening test for antidepressant activity (Stem et al., Prog. Neuropsychpharmacol. Biol. Psychiatry 11(6)659-671, 1987). Additional devices for monitoring depression also are known to those of skill in the art (Nomura et al., Yakubutsu Seishiiz Kodo 12(5)207-13, 1992).
As described above, the murine responses in forced swim and tail suspension tests provides a model for determining depression. We tested C57BL/6J and DBA/2J mice in the forced-swim and tail-suspension tests. […] Test duration was 6 minutes and immobility, defined as the absence of all movement except minor movement required for the mouse to keep its head above the surface, was measured during the last 4 minutes. […] The duration of the test was 6 minutes and immobility, defined as the absence of all but respiratory movements, was measured during the last 4 minutes. […]

DBA/2J mice [3] = test: forced-swim test, DBA/2J mice; assay type: in vivo, mouse; details: DBA/2J mice versus C57BL/6J mice
Description: as §1, with “genes. […]” for “genes.”

p90 RSK = details: cited from earlier work
C57BL/6J mice [4] = details: 10 mg/kg, last 4 minutes of 6-minute forced swim, unmedicated 143 seconds; cited from earlier work
DBA/2J mice [5] = details: baseline 100 seconds; cited from earlier work
RSK2 = RSK2 (Homo sapiens, UniProt P51812); details: cited from earlier work
RSK2, sequence (P51812 whole entry): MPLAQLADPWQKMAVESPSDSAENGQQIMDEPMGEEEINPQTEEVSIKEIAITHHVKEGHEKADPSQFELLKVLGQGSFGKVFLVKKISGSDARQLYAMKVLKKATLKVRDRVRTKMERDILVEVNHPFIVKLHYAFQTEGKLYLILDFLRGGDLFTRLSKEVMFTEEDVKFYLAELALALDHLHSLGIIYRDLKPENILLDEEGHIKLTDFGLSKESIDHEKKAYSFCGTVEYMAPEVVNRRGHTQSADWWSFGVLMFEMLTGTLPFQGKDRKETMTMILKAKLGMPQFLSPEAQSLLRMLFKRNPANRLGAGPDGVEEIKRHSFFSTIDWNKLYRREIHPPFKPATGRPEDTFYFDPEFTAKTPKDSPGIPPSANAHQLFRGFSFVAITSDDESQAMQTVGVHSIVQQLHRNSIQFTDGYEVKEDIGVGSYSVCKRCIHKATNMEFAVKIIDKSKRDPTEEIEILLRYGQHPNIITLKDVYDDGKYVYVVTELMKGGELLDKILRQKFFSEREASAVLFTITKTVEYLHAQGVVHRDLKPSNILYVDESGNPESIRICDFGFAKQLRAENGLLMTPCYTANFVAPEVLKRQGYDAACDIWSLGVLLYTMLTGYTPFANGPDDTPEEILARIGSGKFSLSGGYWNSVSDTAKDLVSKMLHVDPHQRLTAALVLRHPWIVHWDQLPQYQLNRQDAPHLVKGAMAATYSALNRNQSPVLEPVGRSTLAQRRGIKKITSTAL

CC(=O)O[C@@H]1[C@@H](OC(C)=O)[C@H](C)O[C@@H](Oc2c(-c3ccc(O)cc3)oc3cc(O)cc(O)c3c2=O)[C@@H]1OC(C)=O [3Ac-SL0101]
immobility in forced-swim test (C57BL/6J mice [1]; 20-fold higher dose): 0 s | dose response of immobility in forced-swim test (C57BL/6J mice [1]; varying dosages, FIG. 3): monotonic dose-response effect | immobility in forced-swim test (C57BL/6J mice [1]; very low dose, PBS/methanol control 127 seconds): 78 s | inhibition of RSK activity [2]: inhibits the activity of this kinase | immobility in tail-suspension test (mice): reduced immobility | effective dose in DBA/2J mice relative to C57BL/6J mice (DBA/2J mice [3]): approximately 10 fold lower dose

CC(C)CCN1c2nc(Nc3cc(F)c(O)c(F)c3)ncc2N(C)C(=O)C1C (stereo not shown) [BI-D1870]
time of immobility in forced swim test (C57BL/6J mice [1]; FIG. 4): substantial reduction | inhibition of p90 RSK (p90 RSK): specific inhibitor of the p90 RSK

CNCCCN1c2ccccc2CCc2ccccc21 [desipramine]
immobility in forced swim (C57BL/6J mice [4]): 100 s | immobility in forced swim (DBA/2J mice [5]): 50 s

CNCCC(Oc1ccc(C(F)(F)F)cc1)c1ccccc1 (stereo not shown) [fluoxetine]
immobility in forced swim (DBA/2J mice [5]): 50 s

O=c1c(O)c(-c2ccc(O)cc2)oc2cc(O)cc(O)c12 [kaempferol]
immobility time in forced-swim test (C57BL/6J mice [1]; dose dependent manner, within minutes after intraperitoneal injection): reduce immobility time | inhibition of RSK2 (RSK2): inhibitor of the RSK2
